In patent US9540397B2, “BACE1 inhibitors” (Hoffmann-La Roche Inc., priority 2014, dated 2017):

Assays:
[1] = tested on: Aβ40 in brain of wild-type mice; assay: Lowering of Aβ40 in brain of wild-type mice; format: in vivo; conditions: Mus musculus, po; female C57Bl/6J mice, 30 mg/kg per os, 4 h; brain Aβ40 related to the value in the vehicle group; read-out: Aβ40 (wt mice, brain)
BACE1 = target: T1, BACE1 (Homo sapiens, UniProt P56817); assay: Cellular Aβ-lowering assay (Abeta 40 AlphaLISA, HEK293 APP cells); format: cell-based; conditions: 18-20 hrs incubation, Aβ40 in culture supernatant, read-out: BACE1 cell act. Aβ40 IC50
T1 construct: endogenous in cells; host or cells: HEK293 APP cells
How it was run: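 APP-expressing HEK293 cells exposed to compounds for 18-20 h at 37° C. (1% DMSO final). Secreted Aβ1-40 in supernatant measured by AlphaLISA (615 nm emission), expressed as percent of DMSO-only signal, and IC50 fitted.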

T1 sequence (P56817 46-501): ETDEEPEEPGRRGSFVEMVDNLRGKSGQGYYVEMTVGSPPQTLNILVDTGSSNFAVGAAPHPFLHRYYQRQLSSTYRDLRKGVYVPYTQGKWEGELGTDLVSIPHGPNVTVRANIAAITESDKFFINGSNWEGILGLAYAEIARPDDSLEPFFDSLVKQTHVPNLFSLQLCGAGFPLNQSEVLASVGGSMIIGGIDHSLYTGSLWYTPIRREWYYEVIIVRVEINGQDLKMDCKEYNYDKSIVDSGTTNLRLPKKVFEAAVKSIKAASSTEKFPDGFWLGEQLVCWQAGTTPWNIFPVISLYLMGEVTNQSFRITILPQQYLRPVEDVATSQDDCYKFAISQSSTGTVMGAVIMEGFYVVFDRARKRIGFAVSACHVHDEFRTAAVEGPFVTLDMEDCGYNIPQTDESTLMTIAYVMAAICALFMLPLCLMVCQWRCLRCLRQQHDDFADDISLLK

Row | IC50 (BACE1) [nM] | Compound | response vs control in vivo at 30 mg/kg [1] [%]
1 | 2.8 | CC1(C)C(N)=N[C@](C)(c2nc(NC(=O)c3ncc(OC(F)F)cc3Cl)ccc2F)[C@@H]2CCN=[S@@]21=O [Example 28AB, N-(6-((3aS,4R,8R)-6-amino-4,7,7-trimethyl-8-oxido-3,3a,4,7-tetrahydro-2H-isothiazolo[1,5-a][1,4]thiazin-4-yl)-5-fluoropyridin-2-yl)-3-chloro-5-(difluoromethoxy)picolinamide] | 100
2 | 15.9 | CC1(C)C(N)=N[C@](C)(c2nc(NC(=O)c3ncc(OC(F)F)cc3Cl)ccc2F)[C@H]2CC3(CC3)CN=[S@@]21=O [Example 50AA, N-(6-((4aR,5R,9R)-7-amino-5,8,8-trimethyl-9-oxido-4,4a,5,8-tetrahydro-2H-spiro[[1,4]thiazino[2,1-f][1,2]thiazine-3,1′-cyclopropan]-5-yl)-5-fluoropyridin-2-yl)-3-chloro-5-(difluoromethoxy)picolinamide] | 117
